Test: mn = molality of the nth substance listed, in mol/kg
Details: 99.6 kPa, Liquid; for viscosity: Capillary tube (Ostwald / Ubbelohde) method; for mass density: Vibrating tube method

CNC(C)=O [N-methylacetamide] + [Cl-].[Cl-].[Mg+2]
Details	mass density, 308.15 K [kg/m3]	mass density, 313.15 K [kg/m3]	mass density, 318.15 K [kg/m3]	mass density, 323.15 K [kg/m3]	mass density, 328.15 K [kg/m3]	viscosity, 308.15 K [mPa·s]	viscosity, 313.15 K [mPa·s]	viscosity, 318.15 K [mPa·s]	viscosity, 323.15 K [mPa·s]	viscosity, 328.15 K [mPa·s]
m2 = 0	945.71	941.53	937.33	933.16	928.93	3.488	3.073	2.723	2.438	2.194
m2 = 0.00111	945.76	941.57	937.37	933.2	928.98	3.491	3.077	2.725	2.44	2.196
m2 = 0.004	945.9	941.69	937.51	933.33	929.12	3.502	3.087	2.735	2.448	2.203
m2 = 0.00479	945.94	941.73	937.54	933.37	929.16	3.505	3.09	2.737	2.451	2.204
m2 = 0.00663	946.03	941.81	937.63	933.45	929.24	3.512	3.097	2.743	2.455	2.208
m2 = 0.00734	946.06	941.85	937.66	933.48	929.29	3.514	3.099	2.747	2.457	2.211
m2 = 0.00868	946.13	941.92	937.73	933.54	929.35	3.52	3.103	2.75	2.462	2.214
m2 = 0.01179	946.27	942.07	937.87	933.7	929.49	3.531	3.114	2.76	2.471	2.221
m2 = 0.01529	946.45	942.24	938.04	933.87	929.68	3.544	3.127	2.771	2.48	2.23
m2 = 0.02124	946.72	942.53	938.33	934.15	929.95	3.566	3.147	2.792	2.495	2.244
m2 = 0.02416	946.86	942.67	938.47	934.29	930.09	3.577	3.156	2.801	2.505	2.251
m2 = 0.05144	948.15	943.94	939.77	935.6	931.4	3.681	3.251	2.89	2.579	2.317
m2 = 0.0831	949.6	945.45	941.26	937.11	932.91	3.798	3.361	2.994	2.67	2.391

Reference: the NIST ThermoML archive (doi:10.1021/acs.jced.9b00046)
